Test results published in patent US5618814A, “Trisubstituted pyrimido [5,4-d] pyrimidines for modulating multi-drug resistance and pharmaceutical compositions containing these compounds” (Dr. Karl Thomae GmbH, priority 1993, dated 1997).
Like-named read-outs stand apart in the source and are kept apart here.

Columns and labels:
[1] = system: adriamycin-resistant S 180 mouse sarcoma cells; assay: Cytotoxicity in proliferating adriamycin-resistant S 180 mouse sarcoma cells (MTT, 6 days) in the absence or presence of adriamycin; type: cell-based; details: S-180, 144 h
Method: was tested on cells resistant to adriamycin as follows:
Proliferating, adriamycin-resistant S 180 mouse sarcoma cells were cultivated for six days in the presence of various concentrations of test substances. Concentrations of the test substances with a cytotoxic or cytostatic effect were indicated by reduced cell growth or by the cells dying off. The end point of the assay is the number of living cells per culture which is determined indirectly, making use of the property of vital cells to reduce the dye MTT [=3-(4,5-dimethylthiazol-2-yl)-2,5-diphenyltetrazoliumbromide] to coloured formazane. The IC50 denotes the concentration of a test substance which reduces the number of vital cells per culture vessel to 50% of the untreated control. […] Therefore, two IC50 values are obtained for each test substance, one in the presence of adriamycin (IC50 ADR), the other in the absence of adriamycin (IC50). The difference in the logarithms (to the base ten) of the two IC50 values: Δ=lgIC50-lgIC50 ADR is a measure of the increase in the cytotoxicity of the test substance brought about by adriamycin.
Exponentially growing adriamycin-resistant or adriamycin-sensitive S 180 cells were plated out in 96-well flat-bottomed microtitre dishes at a rate of 2000 cells per well in 100 μl of growth medium (RPMI-1640 containing 10% foetal calf serum). The culture dishes were incubated in an incubator at 37° C., 5% CO2 at 100% relative humidity. After 24 hours, 50 μl of growth medium containing various concentrations of test substance and 50 μl of growth medium with or without adriamycin were added to each well. Following a further 6-day cultivation period, 50 μl of tetrazolium salt solution [5 mg of 3-(4,5-dimethylthiazol-2-yl)-2,5-diphenyl-tetrazoliumbromide per ml of phosphate-buffered saline solution, diluted 1:5 (v/v) with RPMI-1640 before use] were pipetted into each well. After […] incubation the culture medium was carefully suction filtered and the formazane formed intracellularly was solubilised with 150 μl of dimethylsulphoxide per well. The dishes were briefly shaken and the optical density was measured at 570 nm with a photometer such as a Dynatech MR-600 apparatus. The formation of the coloured formazane by reduction of the tetrazolium salt is proportional to the number of living cells. The averages of three measurements were used to calculate the IC50 values (dilution stage: 1:2).

[2] = Tolerability after i.v. administration in mice; type: in vivo; details: 100 mg/kg i.v. in mice
[3] = Adriamycin 0 ng/ml (absence of adriamycin), read-out: IC50
[4] = in presence of Adriamycin 100 ng/ml, read-out: IC50 (IC50 ADR)

Compound	IC50 [1, 3] [µg/mL]	IC50 [1, 4] [µg/mL]	toxic side effects / tolerability [2]
CN(Cc1ccccc1)c1ncnc2c(N3CCOCC3)nc(N3CCC(N(C)C)CC3)nc12 [Substance A, 2-[4-(N,N-dimethylamino)-piperidino]-8-(N-benzyl-N-methyl-amino)-4-morpholino-pyrimido [5,4-d]pyrimidine]	1	0.3	–
COC(=O)NC1CCN(c2nc(N3CCOCC3)c3ncnc(N(C)Cc4ccccc4)c3n2)CC1 [Substance B]	10	1	–
CN(Cc1ccccc1)c1ncnc2c(N3CCCCC3)nc(N3CCC(N(C)C)CC3)nc12 [Substance C, 2-[4-(N,N-dimethylamino)-piperidino]-8-(N-benzyl-N-methyl-amino)-4-piperidino-pyrimido [5,4-d]pyrimidine]	2	0.3	–
CN(Cc1ccccc1)c1ncnc2c(N3CCOCC3)nc(N3CCC(N4CCCCC4)CC3)nc12 [Substance D, 8-(N-benzyl-N-methyl-amino)-2-[4-(piperidino)-piperidin-1-yl]-4-morpholino-pyrimido [5,4-d]pyrimidine]	3	0.3	–
CN(C)CC1CCN(c2nc(N3CCOCC3)c3ncnc(N(C)Cc4cccc5ccccc45)c3n2)CC1 [Substance E, 2-[4-(N,N-dimethylaminomethyl)-piperidino]-8-[N-(napth-1-yl-methyl)-N-methyl-amino]-4-morpholino-pyrimido [5,4-d]pyrimidine]	3	0.1	–
CN(Cc1ccccc1)c1nc(N2CCC(N(C)C)CC2)nc2c(N3CCOCC3)ncnc12 [Substance F, 4-(N-benzyl-methyl-amino)-2-[4-(N,N-dimethylamino)-piperidino]-8-morpholino-pyrimido [5,4-d]pyrimidine]	3	0.3	–
COc1cc2c(cc1OC)CN(c1ncnc3c(N4CCOCC4)nc(N4CCC(N(C)C)CC4)nc13)CC2 [Substance G, 2-[4-(N,N-dimethylamino)-piperidino]-8-(6,7-dimethoxy-1,2,3,4-tetrahydro-isoquinolin-2-yl)-4-morpholino-pyrimido [5,4-d]pyrimidine]	3	0.1	did not lead to any detectable toxic side effects
CN(Cc1cccc2ccccc12)c1ncnc2c(N3CCOCC3)nc(N3CCC(N(C)C)CC3)nc12 [Substance H, 2-[4-(N,N-dimethylamino)-piperidino]-8-[N-(naphth-1-yl-methyl)-N-methyl-amino]-4-morpholino-pyrimido [5,4-d]pyrimidine]	3	0.1	–
CN(Cc1ccccc1)c1nc(N2CCC(NCC(c3ccccc3)c3ccccc3)CC2)nc2c(N3CCOCC3)ncnc12 [Substance I, 2-[4-(2,2-diphenylethylamino)-piperidino]-4-(N-benzyl-N-methyl-amino)-8-morpholino-pyrimido-[5,4-d]pyrimidine]	10	0.3	–
CN(C)C1CCN(c2nc(N3CCOCC3)c3ncnc(N(CCCNC(=O)c4ccccc4)Cc4ccccc4)c3n2)CC1 [Substance J, 2-[4-(N, N-dimethylamino)-piperidino]-8-[N-benzyl-N-(3-benzoylaminopropyl)-amino]-4-morpholino-pyrimido-[5,4-d]pyrimidine]	3	0.1	–
CN(Cc1cccc2ccccc12)c1nc(N2CCC(N(C)C)CC2)nc2c(N3CCOCC3)ncnc12 [Substance K, 2-[4-(N,N-dimethylamino)-piperidino]-4-[N-(naphth-1-yl-methyl)-N-methyl-amino]-8-morpholino-pyrimido-[5,4-d]pyrimidine]	3	0.1	–
